Measured values: patent US7601745B2, “Heterocyclic NF-kB inhibitors” (4SC AG, priority 2004, dated 2009)

tested on: A549-NF-κB-SEAP reporter cells; experiment: Inhibition of NF-κB-induced inflammation ([…] NINA Instant Assay, SEAP reporter); type: cell-based; conditions: NF-κB inflammation assay
How it was run: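 Reporter cells reactivated 18 h at 37° C, pre-incubated 4.5 h with compound (0.01 up to 100 μM), then stimulated with 2 ng/ml TNF-α for 22 h. SEAP measured by CSPD chemiluminescence (40 min) after endogenous phosphatase inactivation; EC50 fitted from quadruplicates.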

Compound | Biological activity (inhibition in the NF-κB inflammation assay)
N=C(NC(=O)c1csc(NC(=O)c2ccc(C(F)(F)F)cc2)n1)Nc1nc2ccccc2[nH]1 [compound 51] | +++ (“+++” stands for 90-100% inhibition)
NC(=Nc1nc2ccccc2[nH]1)NC(=O)c1csc(NC(=O)c2ccc(C(F)(F)F)c(F)c2)n1 [compound 56] | +++ (“+++” stands for 90-100% inhibition)

same assay, conditions: compounds of formula (I); TNF-α stimulated reporter cells; test concentration not given

Compound | Biological activity (NF-κB inflammation assay, inhibition)
O=C(O)C1CCCCC1C(=O)N1CCC(c2nc(C(=O)N3CCN(c4cccc(C(F)(F)F)c4)CC3)cs2)CC1 (stereo not drawn) [compound 189] | + (“+” stands for 50-80% inhibition)
COc1ccc(N2CCC(c3nc(C(=O)N4CCN(c5cccc(C(F)(F)F)c5)CC4)cs3)CC2)cc1OC [compound 159] | + (“+” stands for 50-80% inhibition)
O=C(Cc1ccc(F)cc1)N1CCC(c2nc(C(=O)N3CCN(c4ccccn4)CC3)cs2)CC1 [compound 237] | + (“+” stands for 50-80% inhibition)
CC(=O)Nc1ccc(S(=O)(=O)N2CCC(c3nc(C(=O)N4CCN(c5cccc(C(F)(F)F)c5)CC4)cs3)CC2)cc1 [compound 207] | + (“+” stands for 50-80% inhibition)
